Experimental data: publication PMC2743695 (BMC Structural Biology, 2009)

Target: AlrBax (Dal1, alanine racemase from Bacillus anthracis Ames) (Bacillus anthracis, UniProt A0A6L7HC45)
Conditions: covalent (internal aldimine with Lys41); pH 6.5; chloride ion and acetate in active site

AlrBax (Dal1, alanine racemase from Bacillus anthracis Ames), sequence (A0A6L7HC45 1-389 limits assumed): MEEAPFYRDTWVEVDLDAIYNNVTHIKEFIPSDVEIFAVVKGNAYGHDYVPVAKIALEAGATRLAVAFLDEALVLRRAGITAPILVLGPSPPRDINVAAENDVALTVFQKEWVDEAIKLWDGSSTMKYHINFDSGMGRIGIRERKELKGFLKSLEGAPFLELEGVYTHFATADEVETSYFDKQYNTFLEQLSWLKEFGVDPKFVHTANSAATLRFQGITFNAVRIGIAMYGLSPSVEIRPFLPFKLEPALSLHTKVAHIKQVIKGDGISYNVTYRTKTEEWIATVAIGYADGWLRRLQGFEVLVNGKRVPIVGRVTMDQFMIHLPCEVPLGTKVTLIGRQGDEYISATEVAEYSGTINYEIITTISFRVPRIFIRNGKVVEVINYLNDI

## Cc1ncc(COP(=O)(O)O)c(C=O)c1O [PLP]
  X-ray crystal structure, 1.95 Å: In the AlrBax structure, Lys41 is seen covalently linked to the PLP cofactor
